Data from patent US10667518B2, “Pesticidally active heterocyclic derivatives with sulphur containing substituents” (SYNGENTA PARTICIPATIONS AG, priority 2016, dated 2020).

Key:
Assay type in all cases: in vivo
[1] = test system: Diabrotica balteata (Corn Root Worm); assay: Diabrotica balteata (corn root worm) test on sprayed maize sprouts; details: 96 h, application rate of 200 ppm, L2 larvae, 4 days after infestation, in comparison to untreated samples, read-out: effect in at least one of the two categories (mortality or growth inhibition)
Method: Example B2: Diabrotica balteata (Corn Root Worm)
Maize sprouts placed onto an agar layer in 24-well microtiter plates were treated with aqueous test solutions prepared from 10′000 ppm DMSO stock solutions by spraying. After drying, the plates were infested with L2 larvae (6 to 10 per well). The samples were assessed for mortality and growth inhibition in comparison to untreated samples 4 days after infestation.
(§1) The following compounds gave an effect of at least 80% in at least one of the two categories (mortality or growth inhibition) at an application rate of 200 ppm: P1, P2, P3, P4.

[2] = test system: Plutella xylostella (Diamond Back Moth); assay: Plutella xylostella (diamond back moth) artificial diet test; details: 120 h, application rate of 200 ppm, L2 larvae, artificial diet treated by pipetting, 5 days after infestation, in comparison to untreated samples, read-out: effect in at least one of the two categories (mortality or growth inhibition)
Method: Example B7: Plutella xylostella (Diamond Back Moth)
24-well microtiter plates with artificial diet were treated with aqueous test solutions prepared from 10′000 ppm DMSO stock solutions by pipetting. After drying, the plates were infested with L2 larvae (10 to 15 per well). The samples were assessed for mortality and growth inhibition in comparison to untreated samples 5 days after infestation.
as §1

[3] = test system: Spodoptera littoralis (Egyptian Cotton Leaf Worm); assay: Spodoptera littoralis (Egyptian cotton leaf worm) test on sprayed cotton leaf discs; details: foliar, 72 h, application rate of 200 ppm, L1 larvae, 3 days after infestation, in comparison to untreated samples, read-out: control (mortality, anti-feeding effect, or growth inhibition)
Method: Example B8: Spodoptera littoralis (Egyptian Cotton Leaf Worm)
Cotton leaf discs were placed onto agar in 24-well microtiter plates and sprayed with aqueous test solutions prepared from 10′000 ppm DMSO stock solutions. After drying the leaf discs were infested with five L1 larvae. The samples were assessed for mortality, anti-feeding effect, and growth inhibition in comparison to untreated samples 3 days after infestation. Control of Spodoptera littoralis by a test sample is given when at least one of the categories mortality, anti-feedant effect, and growth inhibition is higher than the untreated sample.

CCS(=O)(=O)c1cc(-c2cc(F)cc(F)c2)cnc1-n1cc2ncc(C(F)(F)F)cc2n1 [P1, 2-[5-(3,5-difluorophenyl)-3-ethylsulfonyl-2-pyridyl]-6-(trifluoromethyl)pyrazolo[4,3-b]pyridine]
≥ 80%: percent effect (mortality or growth inhibition) at 200 ppm [1] | percent effect (mortality or growth inhibition) at 200 ppm [2] | percent control (mortality, anti-feedant effect or growth inhibition) at 200 ppm [3]

CCS(=O)(=O)c1cc(-c2cccc(F)c2)cnc1-n1cc2ncc(C(F)(F)F)cc2n1 [P2]
≥ 80%: percent effect (mortality or growth inhibition) at 200 ppm [1] | percent effect (mortality or growth inhibition) at 200 ppm [2] | percent control (mortality, anti-feedant effect or growth inhibition) at 200 ppm [3]

CCS(=O)(=O)c1cc(-c2cc(F)cc(F)c2)cnc1-n1cc2ccc(C(F)(F)F)cc2n1 [P3, 2-[5-(3,5-difluorophenyl)-3-ethylsulfonyl-2-pyridyl]-6-(trifluoromethyl)indazole]
≥ 80%: percent effect (mortality or growth inhibition) at 200 ppm [1] | percent effect (mortality or growth inhibition) at 200 ppm [2] | percent control (mortality, anti-feedant effect or growth inhibition) at 200 ppm [3]

CCS(=O)(=O)c1cc(-c2cccc(F)c2)cnc1-n1cc2ccc(C(F)(F)F)cc2n1 [P4]
≥ 80%: percent effect (mortality or growth inhibition) at 200 ppm [1] | percent effect (mortality or growth inhibition) at 200 ppm [2] | percent control (mortality, anti-feedant effect or growth inhibition) at 200 ppm [3]
